Source: patent US20180339016A1 (priority 2015, published 2018)
Where two headings read alike, the source gives them in different places.

Columns and labels:
[1] = system: Escherichia coli (ATCC 25922); conditions: peptide alone; peptide concentration required to inhibit growth by 20% (so in the source)
Description: (§1) The N-terminus of the peptides were acetylated and the C-terminus was amidated. The kinked structure can rapidly reduce the alpha-helical content, thereby greatly reducing the toxicity of the peptide against host cells. In addition, because of the potential to show specificity for the Gram-negative bacterial membrane, Pro-mutants were prepared by site-directed mutagenesis. Using the prepared peptides, their MIC for the Gram-negative bacterium E. coli and the Gram-positive bacterium S. aureus and their hemolytic activity for host cells were examined (Table 1).
(§2) To measure the synergy between the membrane-activating peptides and the repositioning drug, a 10× compound was prepared, and then serially diluted ⅔-fold with distilled water. An MH broth (900 μl) was added to and mixed with the 10× compound (100 μl), and then 200 μL of the mixture was taken and added to a 96-well plate. E. coli cultured for one day was adjusted to 0.5 MCF using MCFarland, and diluted 10-fold, and then 10 μl of the dilution was added to each well of the plate (5×10^5 CFU/mL). After addition of the bacterial cells, plate was incubated at 37° C. for 18 hours, and then the OD value at UV-Vis (600 nm) was measured. Cell viability (%)=(OD600 of sample−OD600 of negative control)/(OD600 of positive control−OD600 of negative control)×100.

E. coli ATCC 25922 [2] = system: E. coli ATCC 25922
[3] = system: Staphylococcus aureus (ATCC 29213); assay: MIC of peptide against S. aureus; assay type: cell-based; conditions: peptide alone
Description: as §1

E. coli ATCC 25922 [4] = assay: Antibiotic interaction assay (Wimley), 2/3 broth microdilution: MIC alone, MIC of combination, FICI; assay type: cell-based; conditions: for MIC: Escherichia coli; for MIC (μM) against E. coli ATCC, combination of 3 compounds / MIC (μM) against E. coli ATCC, combination of two compounds: concentration of labelled component; for MIC of combination (μM): antibiotic: concentration of labelled drug in combination with KL-L9P; for FICI of drug with KL-L9P / FICIKL-L9P / FICIantibiotic: labelled drug + KL-L9P; for MIC of drug with 1 μM KL-L9P / dilution of MIC relative to drug alone: with 1 μM of KL-L9P; for MIC of combination (μM): antibiotic (colistin): colistin concentration in combination with labelled peptide; for MIC of peptide: peptide alone
Description: Synergy was evaluated by an antibiotic interaction assay (Wimley, 2015) Using the method of Wimley (BBA, 2015, v. 1848(1), pp. 8-15), synergy between the membrane-activating peptide and an antibiotic was measured by an FICI value (FIG. 17). […] Thus, to accurately examine synergy, a ⅔ dilution method which observes MIC at denser concentration intervals is advantageous over a ½ dilution method in statistical terms. […] In the same manner, the MIC of an antibiotic or repositioning drug (second line) is measured. In the third line, the two compounds are mixed after putting half amount each, and the MIC thereof is measured.
A broth microdilution technique (⅔ dilution) was used together with an MH broth. E. coli treated with an antibiotic and the peptide was incubated in a 37° C. incubator for 18 hours.
as §2

[5] = ATCC25922, 18 h, Tables 19-23, read-out: MIC (μM) against E. coli ATCC, 1 compound alone
[6] = ATCC25922, 18 h, drug alone, <20% growth of positive control, read-out: MIC of antibiotic
[7] = Table 13, Lys-Ala scanning library
[8] = labelled peptide + colistin + linezolid
[9] = peptide concentration in combination with colistin
[10] = three compounds: labelled peptide + colistin + linezolid

KLLKLLKKPAKLLK [KL-L9PL10A] was tested, and the “MIC [μM] Against E. coli” value [1] was 40 µM, the “increase of FICI value with colistin when peptide changed from 1/4 MIC to 1/2 MIC” value (E. coli ATCC 25922 [2]) was 0.31 and the “FICI Against E. coli, Colistin & 1/2 MIC peptide” value (E. coli ATCC 25922 [2]; Table 15, Leu-Ala scanning) was 0.80. The “FICI Against E. coli, Colistin & 1/4 MIC peptide” value (E. coli ATCC 25922 [2]; Table 15, Leu-Ala scanning) was 0.49.

In the case of KLLKLLKKLLKPLK [KL-L12P], the “MIC [μM] Against E. coli” value [1] is reported as 2.5 µM and the “MIC [μM] Against S. aureus” value [3] is reported as 20 µM.

Mtx- KLLKLPKKLLKLLK [Mtx-KL-L6P] was tested, and the “MIC [μM] Against E. coli” value [1] was 5.0 µM.

For KLLKLLKKLPKLLK [KL-L10P], the “MIC [μM] Against E. coli” value [1] was 2.5 µM and the “MIC [μM] Against S. aureus” value [3] was 20 µM.

KLLKLAKKPLKLLK [KL-L6AL9P] was tested, and the “MIC [μM] Against E. coli” value [1] was 89 µM.

`CCC(C)(C)C(=O)O[C@H]1C[C@@H](C)C=C2C=C[C@H](C)[C@H](CC[C@@H]3C[C@@H](O)CC(=O)O3)[C@H]21` [simvastatin] was tested, and the MIC (E. coli ATCC 25922 [4]; [5]) was greater than 500 µM, the MIC (E. coli ATCC 25922 [4]; [6]) was greater than 500 µM and the MIC (E. coli ATCC 25922 [4]; ATCC25922, simvastatin alone, read-out: MIC of simvastatin) was 750 µM. The “MIC (μM) against E. coli ATCC, combination of 3 compounds” value (E. coli ATCC 25922 [4]; KL-L9P + colistin + simvastatin) was 33 µM, the “MIC (μM) against E. coli ATCC, combination of two compounds” value (“MIC (μM) … of two compounds” for short) (E. coli ATCC 25922 [4]; KL-L9P + simvastatin) was 53 µM and the “MIC (μM) … of two compounds” value (E. coli ATCC 25922 [4]; colistin + simvastatin) was 71 µM. The “MIC of combination (μM): antibiotic” value (E. coli ATCC 25922 [4]) was 52.47 µM, the “FICI of drug with KL-L9P” value (E. coli ATCC 25922 [4]) was 0.18 and the FICIKL-L9P (E. coli ATCC 25922 [4]) was 0.11. For the same compound, the FICIantibiotic (E. coli ATCC 25922 [4]) was 0.07.

In the case of `CC(C)Cc1ccc(C(C)C(=O)O)cc1` (stereo not drawn) [ibuprofen], the “MIC of drug with 1 μM KL-L9P” value (E. coli ATCC 25922 [4]) is reported as 3 µM and the “dilution of MIC relative to drug alone” value (E. coli ATCC 25922 [4]) is reported as “about 3000 fold”.

In the case of KLLKLLKAPLKLLK [KL-L9P/K8A], the “FICI Against E. coli, Colistin & 1/2 MIC peptide” value (E. coli ATCC 25922 [2]; [7]) is reported as 0.97.

In the case of KLLKLLKKQLKLLK [KL L9Q], the “MIC [μM] Against E. coli” value [1] is reported as 1.25 µM.

For `O=c1c(O)c(-c2ccc(O)c(O)c2)oc2cc(O)cc(O)c12` [quercetin], the MIC (E. coli ATCC 25922 [4]; [6]) was 7500 µM, the “MIC of combination (μM): antibiotic” value (E. coli ATCC 25922 [4]) was 108.39 µM and the “FICI of drug with KL-L9P” value (E. coli ATCC 25922 [4]) was 0.35. For the same compound, the FICIKL-L9P (E. coli ATCC 25922 [4]) was 0.33 and the FICIantibiotic (E. coli ATCC 25922 [4]) was 0.01.

In the case of KLLKLLCKLCKLLK [7, 10 kink], the “MIC [μM] Against E. coli” value [1] is reported as 1.1 µM, the “MIC of combination (μM): antibiotic (colistin)” value (E. coli ATCC 25922 [4]) is reported as 0.081 µM and the “FICI of peptide with colistin” value (E. coli ATCC 25922 [4]; labelled peptide + colistin) is reported as 0.89. For the same compound, the FICIPeptide (E. coli ATCC 25922 [4]; labelled peptide + colistin) was 0.58, the “FICIcolistin / FICIantibiotic” value (E. coli ATCC 25922 [4]; labelled peptide + colistin) was 0.31 and the “FICI of peptide with colistin and linezolid” value (E. coli ATCC 25922 [4]; [8]) was 1.1. It also gave an FICIPeptide (E. coli ATCC 25922 [4]; [8]) of 0.37, an FICIcolistin (E. coli ATCC 25922 [4]; [8]) of 0.33 and an FICIlinezolid (E. coli ATCC 25922 [4]; [8]) of 0.37. The “MIC of peptide” value (E. coli ATCC 25922 [4]) was 1.1 µM, the “MIC of combination (μM): peptide” value (E. coli ATCC 25922 [4]; [9]) was 0.63 µM and the “MIC of combination (μM): colistin” value (E. coli ATCC 25922 [4]; [10]) was 0.081 µM. The “MIC of combination (μM): linezolid” value (E. coli ATCC 25922 [4]; [10]) was 22 µM and the “MIC of combination (μM): peptide” value (E. coli ATCC 25922 [4]; [10]) was 0.44 µM.

For `CC(=O)Nc1ccc(O)cc1` [acetaminophen], the “synergy with KL-L9P” value (E. coli ATCC 25922 [4]) was “not synergistic”.

Mtx- LKKLLKLPKKLLKL [Mtx-LK-L8P] was tested, and the “MIC [μM] Against E. coli” value [1] was 5.0 µM.

KLR8KLLKKPLS5LLK [st 3, 11] was tested, and the “MIC [μM] Against E. coli” value [1] was 2.5 µM, the “MIC of combination (μM): antibiotic (colistin)” value (E. coli ATCC 25922 [4]) was 0.12 µM and the “FICI of peptide with colistin” value (E. coli ATCC 25922 [4]; labelled peptide + colistin) was 0.86. For the same compound, the FICIPeptide (E. coli ATCC 25922 [4]; labelled peptide + colistin) was 0.59, the “FICIcolistin / FICIantibiotic” value (E. coli ATCC 25922 [4]; labelled peptide + colistin) was 0.27 and the “FICI of peptide with colistin and linezolid” value (E. coli ATCC 25922 [4]; [8]) was 0.70. The FICIPeptide (E. coli ATCC 25922 [4]; [8]) was 0.11, the FICIcolistin (E. coli ATCC 25922 [4]; [8]) was 0.25 and the FICIlinezolid (E. coli ATCC 25922 [4]; [8]) was 0.33. The “MIC of peptide” value (E. coli ATCC 25922 [4]) was 2.5 µM, the “MIC of combination (μM): peptide” value (E. coli ATCC 25922 [4]; [9]) was 0.61 µM and the “MIC of combination (μM): colistin” value (E. coli ATCC 25922 [4]; [10]) was 0.060 µM. For the same compound, the “MIC of combination (μM): linezolid” value (E. coli ATCC 25922 [4]; [10]) was 15 µM and the “MIC of combination (μM): peptide” value (E. coli ATCC 25922 [4]; [10]) was 0.30 µM.

In the case of `N[C@@H]1CONC1=O` [D-cycloserine], the “synergy with KL-L9P” value (E. coli ATCC 25922 [4]) is reported as “not synergistic”.

With KLLKLLKKSLKLLK [KL L9S] the “MIC [μM] Against E. coli” value [1] was 1.25 µM.

With Mtx- KLLKLLKKPLKLLK [Mtx-KL-L9P] the “MIC [μM] Against E. coli” value [1] was 5.0 µM.

For KALKLLKKPLKLLK [KL-L2AL9P], the “MIC [μM] Against E. coli” value [1] was 40 µM, the “FICI Against E. coli, Colistin & 1/2 MIC peptide” value (E. coli ATCC 25922 [2]; Table 15, Leu-Ala scanning) was 0.74 and the “FICI Against E. coli, Colistin & 1/4 MIC peptide” value (E. coli ATCC 25922 [2]; Table 15, Leu-Ala scanning) was 0.61.

For KLLKLLKKPLKALK [KL-L9PL12A], the “MIC [μM] Against E. coli” value [1] was 40 µM, the “FICI Against E. coli, Colistin & 1/2 MIC peptide” value (E. coli ATCC 25922 [2]; Table 15, Leu-Ala scanning) was 0.74 and the “FICI Against E. coli, Colistin & 1/4 MIC peptide” value (E. coli ATCC 25922 [2]; Table 15, Leu-Ala scanning) was 0.61.

With KLAKLLKKPLKLLK [KL-L3AL9P] the “MIC [μM] Against E. coli” value [1] was 27 µM, the “FICI Against E. coli, Colistin & 1/2 MIC peptide” value (E. coli ATCC 25922 [2]; Table 15, Leu-Ala scanning) was 0.70 and the “FICI Against E. coli, Colistin & 1/4 MIC peptide” value (E. coli ATCC 25922 [2]; Table 15, Leu-Ala scanning) was 0.55.

For `Cc1onc(-c2ccccc2Cl)c1C(=O)N[C@@H]1C(=O)N2[C@@H]1SC(C)(C)[C@@H]2C(=O)O` [cloxacillin], the MIC (E. coli ATCC 25922 [4]; [5]) was 70 µM, the MIC (E. coli ATCC 25922 [4]; [6]) was 74.1 µM and the “MIC (μM) … of two compounds” value (E. coli ATCC 25922 [4]; KL-L9P + cloxacillin) was 18 µM. For the same compound, the “MIC (μM) against E. coli ATCC, combination of 3 compounds” value (E. coli ATCC 25922 [4]; KL-L9P + colistin + cloxacillin) was 9.4 µM, the “MIC (μM) … of two compounds” value (E. coli ATCC 25922 [4]; colistin + cloxacillin) was 38 µM and the “MIC of combination (μM): antibiotic” value (E. coli ATCC 25922 [4]) was 17.78 µM. The FICIKL-L9P (E. coli ATCC 25922 [4]) was 0.25, the FICIantibiotic (E. coli ATCC 25922 [4]) was 0.24 and the “FICI of drug with colistin” value (E. coli ATCC 25922 [4]; labelled drug + colistin) was “about 1”. The “MIC of drug with 1 μM KL-L9P” value (E. coli ATCC 25922 [4]) was 0.3 µM and the “dilution of MIC relative to drug alone” value (E. coli ATCC 25922 [4]) was 128 fold.

KLLKLLKKELKLLK [KL L9E] was tested, and the “MIC [μM] Against E. coli” value [1] was 5 µM.

For KLLKLLAKPLKLLK [KL-L9P/K7A], the “FICI Against E. coli, Colistin & 1/2 MIC peptide” value (E. coli ATCC 25922 [2]; [7]) was 0.86.
